Measurements reported in paper PMC12888861, “Antibacterial activity of enmetazobactam against Acinetobacter spp.: a molecular dissection of mechanism of action and resistance determinants” (Antimicrobial Agents and Chemotherapy, 2025).

Experiments:
[1] = test system: carbapenem-resistant A. baumannii (CRAB) isolates (n = 67); experiment: MIC, broth microdilution (EUCAST), carbapenem-resistant A. baumannii isolates; format: cell-based, Acinetobacter baumannii; details: ETZ fixed 8 mg/L in combinations; for MIC: Acinetobacter baumannii
Text: The bacterial strains used in this study comprised 208 clinical isolates from the Spanish National Acinetobacter spp. 2020 Multicenter Collection, which was previously characterized in detail by our research group, including whole-genome sequencing, phylogenetics studies, clonal dynamics, and resistance mechanisms ([2], [29]). Additionally, a collection of A. baumannii ATCC 17978 transformants coding the blaOXA-23, blaOXA-24/40, blaOXA-51, blaOXA-58, blaOXA-143, and blaOXA-201 genes, previously constructed and described by our group ([30]), was used to determine the activity of enmetazobactam against strains carrying the main CHDLs of A. baumannii.
The antimicrobial susceptibility of the 208 Acinetobacter spp. isolates was assessed using the broth microdilution method, as described in the European Committee on Antimicrobial Susceptibility Testing (EUCAST) v.15 guidelines (http://www.eucast.org/clinical_breakpoints). […] MICs for enmetazobactam alone were assessed as well. […] Subsequently, MIC testing was also conducted with a collection of A. baumannii ATCC 17978 transformants expressing clinically relevant OXA-like carbapenemase genes.
The A. baumannii ATCC 19606 strain was used as the reference strain in all susceptibility experiments, in duplicate assays. Antibiotics were purchased from Sigma-Aldrich, except enmetazobactam and durlobactam, which were obtained from Advanz Pharma and MedChemExpress, respectively.

[2] = test system: A. baumannii ATCC 19606 cells; experiment: Cell morphology assay, bright-field microscopy; format: cell-based, Acinetobacter baumannii; details: A. baumannii ATCC 19606, overnight exposure at 1× MIC
Method: In order to confirm the involvement of PBPs as targets of enmetazobactam, cell morphology assays involving exposure to enmetazobactam and sulbactam were performed following the methodology described in Supplementary materials and methods.
To confirm the involvement of PBPs as targets of enmetazobactam, the cellular morphology of A. baumannii ATCC 19606 reference strain was analyzed after exposure to the compound at different concentrations. Bright-field microscopy was used to monitor the cell morphology. […] For microscopic visualization, aliquots of each sample were obtained, stained with crystal violet solution and observed using an Olympus BX61 microscope (Olympus).
Changes in cell morphology were determined on the basis of alterations in septal integrity, abnormal elongation, spheroplast formation and filamentation, patterns previously associated with the selective inhibition of PBP1, PBP2 and PBP3 in Gram-negative bacilli. Specifically, PBP1 inhibition has been linked to cell lysis, PBP2 inhibition has been linked to spherification, and PBP3 inhibition to defective cell division and filament formation (1, 2). The results were qualitatively compared across different treatments to infer the potential selectivity of enmetazobactam for specific PBPs.

Work on C[C@@H](O)[C@H]1C(=O)N2C(C(=O)O)=C(SCCN=CN)C[C@H]12 [imipenem] yielded an MIC ([1]; isolate Ab56, ST 1, ADC-75, OXA-69, OXA-23) of 16 µg/mL, an MIC ([1]; isolate Ab83, ST 25, ADC-5, OXA-64, OXA-23) of 32 µg/mL and an MIC ([1]; isolate Ab109, ST 1, ADC-75, OXA-69, OXA-23) of 16 µg/mL. It also gave an MIC ([1]; isolate Ab133, ST 2, ADC-30, OXA-66, OXA-58, TEM-12) of 16 µg/mL, an MIC ([1]; isolate Ab134, ST 2, ADC-30, OXA-66, OXA-58, TEM-12) of 16 µg/mL and an MIC ([1]; isolate Ab137, ST 85, ADC-2, OXA-94, OXA-23) of 32 µg/mL. For the same compound, the MIC ([1]; isolate Ab138, ST 745, ADC-30, OXA-66, OXA-58) was 32 µg/mL, the MIC ([1]; isolate Ab140, ST 85, ADC-2, OXA-94, OXA-23) was 32 µg/mL and the MIC ([1]; isolate Ab141, ST 745, ADC-30, OXA-66, OXA-58) was 16 µg/mL. It also gave an MIC ([1]; isolate Ab144, ST 745, ADC-30, OXA-66, OXA-58) of 32 µg/mL, an MIC ([1]; isolate Ab169, ST 2, ADC-30, OXA-66, OXA-23) of 32 µg/mL and an MIC ([1]; isolate Ab171, ST 2, ADC-30, OXA-66, OXA-23) of 16 µg/mL. The MIC ([1]; isolate Ab173, ST 2, ISAba1-ADC-30, OXA-66, OXA-23) was 32 µg/mL, the MIC ([1]; isolate Ab174, ST 2, ADC-30, OXA-66, OXA-23) was 64 µg/mL and the MIC ([1]; isolate Ab179, ST 2, ADC-30, OXA-66, OXA-23) was 32 µg/mL. For the same compound, the MIC ([1]; isolate Ab180, ST 2, ADC-30, OXA-66, OXA-24/40) was 64 µg/mL, the MIC ([1]; isolate Ab181, ST 2, ADC-30, OXA-66, OXA-23) was 32 µg/mL and the MIC ([1]; isolate Ab182, ST 2, ADC-30, OXA-66, OXA-23) was 16 µg/mL. It also gave an MIC ([1]; isolate Ab183, ST 2, ADC-30, OXA-66, OXA-23) of 16 µg/mL, an MIC ([1]; isolate Ab184, ST 2, ADC-30, OXA-66, OXA-23) of 32 µg/mL and an MIC ([1]; isolate Ab186, ST 2, ADC-30, OXA-66, OXA-23) of 32 µg/mL. It also gave an MIC ([1]; isolate Ab191, ST 2, ADC-30, OXA-66, OXA-23) of 64 µg/mL, an MIC ([1]; isolate Ab192, ST 2, ADC-30, OXA-66, OXA-23) of 64 µg/mL and an MIC ([1]; isolate Ab194, ST 2, ADC-30, OXA-66, OXA-23) of 32 µg/mL. For the same compound, the MIC ([1]; isolate Ab199, ST 2, ADC-30, OXA-66, OXA-23) was 32 µg/mL, the MIC ([1]; isolate Ab201, ST 2, ADC-30, OXA-66, OXA-23) was 32 µg/mL and the MIC ([1]; isolate Ab204, ST 2, ADC-30, OXA-66, OXA-23) was 16 µg/mL. The “MIC distribution 0.12” value ([1]; cumulative share of CRAB isolates (n = 67) at MIC 0.12 mg/L) was 0, the “MIC distribution 0.25” value ([1]; cumulative share of CRAB isolates (n = 67) at MIC 0.25 mg/L) was 0 and the “MIC distribution 0.5” value ([1]; cumulative share of CRAB isolates (n = 67) at MIC 0.5 mg/L) was 0. For the same compound, the “MIC distribution 1” value ([1]; cumulative share of CRAB isolates (n = 67) at MIC 1 mg/L) was 0, the “MIC distribution 2” value ([1]; cumulative share of CRAB isolates (n = 67) at MIC 2 mg/L) was 0 and the “MIC distribution 4” value ([1]; cumulative share of CRAB isolates (n = 67) at MIC 4 mg/L) was 0. For the same compound, the “MIC distribution 8” value ([1]; cumulative share of CRAB isolates (n = 67) at MIC 8 mg/L) was 9.0, the “MIC distribution 16” value ([1]; cumulative share of CRAB isolates (n = 67) at MIC 16 mg/L) was 34.3 and the “MIC distribution 32” value ([1]; cumulative share of CRAB isolates (n = 67) at MIC 32 mg/L) was 79.1. The “MIC distribution 64” value ([1]; cumulative share of CRAB isolates (n = 67) at MIC 64 mg/L) was 100, the “MIC distribution ≤0.06” value ([1]; cumulative share of CRAB isolates (n = 67) at MIC ≤0.06 mg/L) was 0 and the cell morphology [2] was “rounded and spherical cells”.
